The data set in a line: Human HepG2 cell viability assay in 384 well format. It counts as toxicity, cell-based. Further details: dose 125 nL, time 70.5 hour; concentration not given beside the values. The note with it: HepG2 cells, read-out: Inhibition.

For the compound `CC(=O)c1cnc(NCCc2csc(-c3cnccn3)n2)nc1C`, the cytotoxicity at 70.5 h is -10.8%.
Under `CC(C)Cc1ncc2c(n1)CN(c1cc(N3CCCC3)nc(N)n1)C2` stands 1.59%; under `COc1ccnc(N2CCC3(CC2)[C@H](O)C[C@@H]3OCCN(C)C)n1`, 2.31%; under `O=C(c1ccc(-n2cnnc2)cc1Cl)N1CCCC2(CCNC2)C1` (stereo not given), 2.05%.
The figure for `O=C(c1ncoc1C1CC1)N1CCN(CCOc2ccccc2)CC1` is 26%; for `Cc1cc(C)n(CCCN(C)C(=O)C2COc3ccccc3C2)n1` (stereo not given) it is 26.5%; for `COc1ccccc1OC1CN(C(=O)C2CNCC(=O)N2)C1` (stereo not given) it is -9.64%.
`COc1ccccc1-c1ncc(CN2CCC3(CCNCC3)CC2)cn1`: the cytotoxicity at 70.5 h is -7.68%.
Consider `Cc1ccc(C)c(OCCN(C)C(=O)CCc2cn[nH]c2)c1`, for which the cytotoxicity at 70.5 h was -12.7%.
The figure for `Cc1nccn1CCN(C)C(=O)C1CCN(C(=O)C2CCC2)CC1` is 11.3%.
Turning to `Cc1cc(CNc2cncc(C(=O)N(C)C)n2)c2[nH]c(C)c(C)c2c1`, the cytotoxicity at 70.5 h was 27.8%.
Take `Cc1cc(C(=O)N2C[C@H](CO)C[C@H](CN3CCOCC3)C2)nc(C)n1`: the cytotoxicity at 70.5 h was -7.67%.
As to `CC(=O)N1CCc2c(nc(N(C)C)nc2NC(C)Cc2cccs2)C1` (stereo not given), the cytotoxicity at 70.5 h was -6.58%.
Under `COc1nc2c(cc1C(=O)N1CC[C@H](CO)[C@@H](O)C1)CCC2` stands -16.1%.
The figure for `CN(CC1CCOC1)S(=O)(=O)c1cccc(C(=O)N2CCCCCC2)c1` (stereo not given) is -14.8%.
The figure for `CCc1nc(N)nc(N(C)Cc2nncn2CCOC)c1C` is 11.8%.
Consider `Cc1ccc(CN(CCN(C)C)C(=O)Nc2cnn(C)c2)s1`, for which the cytotoxicity at 70.5 h is -7.54%.
Under `CCOc1cc2c(cc1CN1CCC3(CC1)CNC(=O)C3)CCC2` stands 23.3%; under `CCC[C@H]1CN(S(C)(=O)=O)C[C@@H]1NC(=O)Cc1ccc(OC)cc1`, 9.24%.
Under `Cc1nsc(NC(=O)N2CCc3sccc3C2)n1` stands -7.28%.
The figure for `C[C@@H]1CN(C2CCN(c3ccccc3F)CC2)CC[C@]1(C)O` is -5.09%; for `CN1CCC(N(CCc2ccccc2)C(=O)c2cc[nH]c2)CC1` it is -7.32%.
For `CC(C)NC(=O)N1CCCC(Cn2cc(-c3ccc(F)cc3)nn2)C1` (stereo not given), the cytotoxicity at 70.5 h was 23.4%.
Under `O[C@@H]1CN(c2cnc3ccccc3n2)CC[C@H]1c1ccc2c(c1)OCO2` stands 21%.
The figure for `Cc1ncsc1CCN(C)C(=O)c1ccc(Cn2cnnn2)cc1` is 3.1%; for `COc1cccc(CN2C[C@H]3CC[C@H]2C3)c1OCCN1CCOCC1` it is -2.04%; for `Cc1cnc(N(C)CCCc2cnn(C)c2)nc1N(C)C` it is 14.8%.
The figure for `CCn1nc(C)c(C(C)Nc2cc(C3CCNCC3)nc(C)n2)c1C` (stereo not given) is -23.1%; for `O=C(c1ccncc1)N1CCC(Oc2cccc(C(F)(F)F)c2)CC1` it is -5.79%; for `Cc1ccc(C(=O)NCCC2CN(C3CCCC3)CCO2)c(C)c1` (stereo not given) it is -4.25%.
On to `Cc1cc(C(=O)N2C[C@H](CO)C[C@H](CN3CCOCC3)C2)cnc1C`, for which the cytotoxicity at 70.5 h was 14.5%.
The figure for `Cc1oc(-c2ccoc2)nc1CN1CCCCC1CCn1cccn1` (stereo not given) is -3.32%; for `Cc1cccc(N2CCN(CCC(=O)NCc3ccc(C)s3)CC2)c1` it is 20.7%.
Under `CCN(C)S(=O)(=O)N1C[C@@H]2CC[C@H](C1)N(Cc1cscn1)C2=O` stands -8.95%; under `CC(C)Cc1cn(C2CCN(C(C)CC3CC3)CC2)nn1` (stereo not given), -0.853%.
As to `CNC(=O)c1n[nH]c2c1C(c1cccc3c1OC(C)(C)C3)CC(=O)N2` (stereo not given), the cytotoxicity at 70.5 h was -1.8%.
For the compound `CCc1nccn1CC(=O)N1CCN(C2CCc3ccccc3C2)CC1` (stereo not given), the cytotoxicity at 70.5 h was -13.3%.
`Cc1ccc(-c2ccnc(N[C@H]3COC[C@@H]3N3CCCCC3)n2)c(C)n1`: the cytotoxicity at 70.5 h was -11.2%.
Under `COc1ccc2c(CN3CCCN(Cc4ccncc4)CC3)n[nH]c2c1` stands -1.17%; under `O=c1n(CC2CCCCO2)nc(CC2CCNCC2)n1-c1ccccc1` (stereo not given), -6.56%; under `CCCN(Cc1cccnc1)C(=O)C1CCS(=O)(=O)CC1`, 6.55%.
For the compound `Cn1c(Cn2ccnc2)nnc1C1CCCN(c2ncccn2)C1` (stereo not given), the cytotoxicity at 70.5 h is -9.36%.
The figure for `O=C(CCC1CCN(Cc2ccncc2)CC1)Nc1ccccc1Cl` is 0.0549%; for `O=C1NCC2(CCCN(C(=O)Nc3ccc4scnc4c3)CC2)O1` (stereo not given) it is -16.7%; for `COCCc1ncc(CN2C[C@H](C3CC3)[C@@H](N)C2)cn1` it is -8.11%.
Regarding `Cc1cnc(C(=O)N2CCN(C(=O)CC(C)C)[C@@H]3CS(=O)(=O)C[C@@H]32)cn1`, the cytotoxicity at 70.5 h was -7.52%.
The figure for `CCOCCn1nc(C)cc1C(=O)N1CCC2(CC1)[C@H](O)C[C@@H]2OCC` is 0.508%.
The figure for `COc1cccc(CC2CN(C3CCCCC3)CCO2)c1` (stereo not given) is 25.1%; for `N#Cc1ccccc1C(=O)N1C[C@@H](CN2CCOCC2)[C@@H](CO)C1` it is -12%; for `CC(=O)Nc1ccsc1C(=O)Nc1cnc2n1CCCC2` it is -4.21%.
Under `CC(=O)c1ccc(N2CCN(C(=O)c3cc(C(C)C)nn3C)CC2)cc1` stands -14.7%.
As for `CCCOc1ccc(Cl)cc1CNc1ncnc2oc(C)nc12`, the cytotoxicity at 70.5 h was -6.3%.
Consider `CN1CCN(S(=O)(=O)c2ccc3c(c2)CN(C(=O)C(C)(C)C)CC3)CC1`, for which the cytotoxicity at 70.5 h is -2.56%.
For the compound `Cc1nc(CN2CCCC(CCc3cccc(C(F)(F)F)c3)C2)co1` (stereo not given), the cytotoxicity at 70.5 h was -3.79%.
Under `CN1CCCN(C[C@@H]2CN(C(=O)CCc3cn[nH]c3)C[C@@H]2CO)CC1` stands -3.81%.
The figure for `O=C(NC1CCCC1)c1cc(Cn2cnc3ccccc32)on1` is -1.14%; for `CCN(CC1CCCCO1)C(=O)CCNC(=O)c1ccccc1F` (stereo not given) it is -11.6%; for `CN(C)c1ccccc1C(=O)N1CCCC(c2ccc(C(=O)O)cc2)C1` (stereo not given) it is -17.2%.
The figure for `COc1ccccc1-n1nc(CC(C)C)nc1Cc1nnc(N)s1` is 5.97%; for `COc1cccc2c1OCC(C(=O)NCCCn1nc(C)c(Cl)c1C)C2` (stereo not given) it is -7.76%; for `Cc1cccc(CN2C(=O)OCC2CO)c1F` (stereo not given) it is 14.6%.
On to `CCCC(=O)N1CCC(N2CC[C@@](O)(CCOC)[C@H](C)C2)CC1`, for which the cytotoxicity at 70.5 h is -5%.
`CNc1nc(C(=O)NCC2CCOc3ccccc3C2)cs1` (stereo not given): the cytotoxicity at 70.5 h was 15.5%.
The figure for `CCc1ccc(CN2CCC(CNC(=O)c3ccc(C)nc3)C2)nc1` (stereo not given) is 16%; for `CCC1(CO)CCCN(C(=O)c2cc(COc3ccccc3F)[nH]n2)C1` (stereo not given) it is -0.863%.
Under `CCc1c(O)nc(SCC(=O)N(CC)CC)n(C(C)CC)c1=O` (stereo not given) stands -0.0297%; under `CCCNC(=O)c1ccc(S(=O)(=O)NCC2(COC)CCCC2)cc1`, -4.17%.
The figure for `CCc1c(O)nc(SC(C)CC)n(-c2ccccc2)c1=O` (stereo not given) is -7.78%; for `COc1cccc(-c2cnnc(N(C)CCC3CCCCO3)n2)c1` (stereo not given) it is 0.0165%; for `c1ccc(CCN2CCCC(Cn3ccnc3)C2)cc1` (stereo not given) it is -10.4%.
`CC(C)c1cc(CN(C)C(=O)CN2CCCCC2=O)no1`: the cytotoxicity at 70.5 h was found to be 13.9%.
Under `Cc1nc(C)n(CC(C)C(=O)N2CCC(CN3CCOCC3)CC2)n1` (stereo not given) stands 4.58%; under `Cc1nc(O)cc(CN2C[C@H](NC(=O)C3CCCC3)[C@@H](C3CC3)C2)n1`, -9.17%; under `CN(C)CCCn1ccnc1C1CCN(c2cccc(C(=O)O)n2)CC1`, -5.15%.
Under `CCc1nn(C)c(Cl)c1CN1C[C@H](NC(=O)CCO)[C@@H](C(C)C)C1` stands -5.11%.
The figure for `CSc1cccc(CN(C)C(=O)CN2CCN(c3ncccn3)CC2)c1` is -8.23%; for `O=C(c1ccccc1-c1nnn[nH]1)N1CCOC(C(F)(F)F)C1` (stereo not given) it is -9.42%; for `O=C1NCCCc2[nH]c(Cc3cccc(F)c3)nc21` it is -8.57%.
On to `O=C(CN1CCCC1c1nc(-c2ccccn2)no1)N1CCNCC1` (stereo not given), for which the cytotoxicity at 70.5 h is -4.93%.
Regarding `Cc1cc(C(=O)N2CCCC3(C=Cc4ccccc4O3)CC2)cc(=O)[nH]1` (stereo not given), the cytotoxicity at 70.5 h is -7.57%.
The figure for `CCN(CC1CCOCC1)C(=O)C1CC(=O)N(Cc2cccnc2)C1` (stereo not given) is -5.23%; for `O=C(CC1CCc2ccccc21)N1CCC(O)(Cn2ccnc2)CC1` (stereo not given) it is -5.64%; for `CCNc1ncc(C(=O)N[C@H]2CC[C@H](n3cnnc3)CC2)cn1` it is -1.33%.
The figure for `Cc1sc2nc(CCN)nc(N3CCS(=O)(=O)CC3)c2c1C` is -0.146%.
Under `CCCN1CCN(C(=O)Nc2ccccc2Cl)[C@H]2CS(=O)(=O)C[C@H]21` stands -4.21%.
Regarding `CCCc1cc(C(=O)N[C@H](C)[C@@H](O)c2ccc(O)cc2)n(C)n1`, the cytotoxicity at 70.5 h was -11.6%.
On to `COc1ccc(CCNC(=O)CN2CCOCS2(=O)=O)cc1`, for which the cytotoxicity at 70.5 h was -8.13%.
On to `CN1CC(=O)N(c2ccsc2)CC12CCN(C(=O)N1CCCC1)C2` (stereo not given), for which the cytotoxicity at 70.5 h is -7.42%.
Consider `Cc1cc(C(=O)N2CCC3(C2)CN(c2ccsc2)C(=O)CN3C)[nH]n1` (stereo not given), for which the cytotoxicity at 70.5 h is -7.61%.
As to `O=C(NCc1ccco1)[C@@H]1CCO[C@@H]2CCN(CC3CC3)C[C@@H]21`, the cytotoxicity at 70.5 h was -6.8%.
Consider `CN1CCC2(CC1)CN(C(=O)c1cnccn1)Cc1ccccc12`, for which the cytotoxicity at 70.5 h is -5.07%.
Regarding `CN(C)C[C@H]1OC[C@@H]2CCN(S(=O)(=O)c3ccc(F)cc3)C[C@@H]21`, the cytotoxicity at 70.5 h was -7.32%.
`CN1CC(=O)N(c2ccccc2)CC12CCN(C(=O)c1cccs1)C2` (stereo not given): the cytotoxicity at 70.5 h was -5.55%.
The figure for `CN1CCOCC2(CCCN(C(=O)Cc3ccncc3)C2)C1` (stereo not given) is -11.6%.
In the case of `CCOCC1CN(CC2CC2)Cc2nn(C)cc21` (stereo not given), the cytotoxicity at 70.5 h was -4.39%.

For the origin of these results see ChEMBL document CHEMBL3507680, “University of Dundee, Gates Library screen for HepG2 cell viability”.
